According to patent US8669256B2, “Substituted thieno[2,3-b]pyrazine compounds as modulators of B-Raf kinase activity” (Merck Sharp & Dohme B.V., priority 2010, dated 2014):
pIC50: −log10 of the molar value. Like-named read-outs stand apart in the source and are kept apart here.

Key:
[1] = biological target: T1, GST-tagged human recombinant active B-Raf (Δ1-415) (Homo sapiens, UniProt P15056); assay: B-Raf kinase activity, IMAP coupled assay (B-Raf/MEK1/ERK2, fluorescence polarization); assay type: biochemical; conditions: bounds also given as pIC50 (>6, >7, >8); 60 min pre-incubation with compound, ATP 50 μM; read-out: IC50, B-Raf IMAP assay
T1 construct: GST; purchased Upstate/Millipore
Text: (§1) In another assay the B-Raf kinase activity can be determined by using an IMAP assay (Immobilized Metal Assay for Phosphochemicals-based coupled assay). IMAP is a homogeneous fluorescence polarization (FP) assay based on affinity capture of phosphorylated peptide substrates. IMAP uses fluorescein-labeled peptide substrates that, upon phosphorylation by a protein kinase, bind to so called IMAP nanoparticles, which are derivatized with trivalent metal complexes. Such binding causes a change in the rate of the molecular motion of the peptide, and results in an increase in the FP value observed for the fluorescein label attached to the substrate peptide. In such an assay, B-Raf phosphorylates unactive MEK1. The phosphorylated MEK1 is capable of phosphorylating ERK2, which subsequently phosphorylates the fluorescein-labeled peptide substrate.
Determination of B-Raf Kinase Activity using an IMAP Assay
as §1, with “Inhibition of” for “In another assay the”, “was measured” for “can be determined by”, “Immobilized” for “IMAP assay (Immobilized”, “assay (IMAP).” for “assay).”, “this” for “such an”
Enzymes, substrate and ATP were diluted at all steps in Kinase Reaction buffer (10 mM Tris-HCl, 10 mM MgCl2, 0.01% Tween-20, 0.05% NaN3 pH 7.2, 1 mM DTT). The final volume at the kinase reaction step of the assay in the 384-well plate was 20 μl. The concentrations within brackets are final concentrations in the assay. B-Raf (GST-tagged human recombinant active B-Raf (Δ1-415), Upstate/Millipore; 0.2 U/ml) was pre-incubated with compounds or DMSO (1% final concentration) for 60 minutes at room temperature in the dark. Thereafter, MEK 1 (GST-tagged human recombinant unactive MEK1 (full-length); 64 ng/ml), ERK2 (GST-tagged human recombinant unactive ERK2 (full-length); 600 ng/ml), peptide substrate (Erktide, Molecular Devices; 50 nM) and ATP (50 μM) were added to the wells and the mix was incubated for another 60 minutes at 30° C. in the dark. Then, IMAP progressive binding buffer (75% 1× buffer A, 25% 1× buffer B, 1:900 Progressive Binding Reagent; Molecular Devices) was added followed by an incubation step of 60 minutes at room temperature in the dark. Finally, the FP signal was read on an Envision Multilabel reader (Perkin Elmer).

[2] = system: phosphorylation of ERK1/2 in A375 cells containing mutant B-Raf (V600E); assay: Phospho-ERK FACE assay in A375 (B-Raf mutated) melanoma cell line; assay type: cell-based; conditions: Homo sapiens, A-375, A375 cells, 2 hours incubation, read-out: IC50, A375 melanoma phospho-ERK assay
Procedure: The B-Raf activity can also be determined in a B-Raf mutated melanoma cell line, such as the A375 cell line. Inhibition of phosphorylation of ERK1/2 can be measured using a Fast Activated Cell-based ELISA (FACE) from Active Motif (Carlsbad, U.S.A., CA). E.g. A375 cells, which are cells containing a mutant form of B-Raf (V600E) and thus contain high levels of phosphorylated ERK, can be incubated with Raf inhibitors. Then cells can be incubated with anti-phospho-ERK antibody and subsequently with horse radish peroxidase (HRP)-labeled secondary antibody. Finally, chemiluminescence reagents can be added, which react with HRP, to give a luminescence signal.
Determination of B-Raf Activity Using a A375 (B-Raf mutated) Melanoma Cell Line (Phospho-ERK FACE Assay)
Inhibition of phosphorylation of ERK1/2 was measured using a Fast Activated Cell-based ELISA (FACE) from Active Motif (Carlsbad, U.S.A., CA). Briefly, A375 cells, which are cells containing a mutant form of B-Raf (V600E) and thus contain high levels of phosphorylated ERK, were incubated for 2 hours with Raf inhibitors. Then, cells were fixed with paraformaldehyde, washed and following quenching and blocking, incubated with anti-phospho-ERK antibody, and as a control, on a separate plate, with ERK antibody. After washing and removal of the primary antibodies, the fixed cells were incubated with horse radish peroxidase (HRP)-labeled secondary antibody. Finally, chemiluminescence reagents were added, which react with HRP, to give a luminescence signal.
Detailed protocol: A375 cells were cultured in DMEM/F12 (Dulbecco's Modified Eagle Medium Nutrient Mixture F-12) (Invitrogen), supplemented with 10% fetal bovine serum (FBS) (Biowhittaker), 100 U/ml penicillin G and 100 μg/ml streptomycin (Gibco). For the phospho ERK assay, cells were seeded at a density of 15,000 cells/well in 100 μl culture medium in 96-well plates and incubated in a humidified atmosphere at 5% CO2 and 37° C. After 24 hours, cells were washed with DMEM/F12 supplemented with 0.1% FBS (assay medium 120 μl of assay medium was added and the plates were incubated overnight in a humidified atmosphere at 5% CO2 and 37° C. The next day, the assay medium was removed and compounds diluted in assay medium were added to the cells. Final DMSO concentration in the assay was 1%. After 2 hours incubation, cells were fixed by replacing the assay medium with 100 μl of 4% formaldehyde (Bio-Connect, Huissen, The Netherlands) in PBS. After 20 minutes of incubation at room temperature, cells were washed three times with 200 μl wash buffer (0.1% (vol/vol) Triton X-100 in PBS from the FACE kit) followed by an incubation of 20 minutes with 100 μl quenching buffer, containing 1% (vol/vol) hydrogen peroxide (Thermo Fisher Scientific) and 0.1% (vol/vol) sodium azide (Sigma-Aldrich) in phosphate-buffered saline. Cells were washed two times with wash buffer, incubated for 1 hour with 100 μl antibody blocking buffer from the kit and washed two times again. 40 μl of diluted antibody against phosphorylated ERK1/2 (1:500 from the FACE kit) was added and incubated overnight at 4° C. The phospho-ERK antibody has been raised against a synthetic phospho-peptide corresponding to residues Thr202 and Tyr204 of human ERK1 and Thr185 and Tyr187 of human ERK2. For the detection of total ERK, antibody against ERK1 and ERK2 (1:500 from the FACE kit) was added. The excessive primary antibody was washed out, and 100 μl diluted HRP-conjugated anti-rabbit IgG (1:2000 from the FACE kit) was added and incubated for 1 hour at room temperature. Secondary antibody was removed and cells were washed 3 times with wash buffer and twice with PBS. 50 μl per well of FACE chemiluminescent working solution was added. Chemiluminescence was measured on an Envision Multilabel reader.

[3] = class given as below 100 nM (pIC50>7)
[4] = between 1 μM and 100 nM (6<pIC50<7)

T1 sequence (P15056 416-766, stated change not applied): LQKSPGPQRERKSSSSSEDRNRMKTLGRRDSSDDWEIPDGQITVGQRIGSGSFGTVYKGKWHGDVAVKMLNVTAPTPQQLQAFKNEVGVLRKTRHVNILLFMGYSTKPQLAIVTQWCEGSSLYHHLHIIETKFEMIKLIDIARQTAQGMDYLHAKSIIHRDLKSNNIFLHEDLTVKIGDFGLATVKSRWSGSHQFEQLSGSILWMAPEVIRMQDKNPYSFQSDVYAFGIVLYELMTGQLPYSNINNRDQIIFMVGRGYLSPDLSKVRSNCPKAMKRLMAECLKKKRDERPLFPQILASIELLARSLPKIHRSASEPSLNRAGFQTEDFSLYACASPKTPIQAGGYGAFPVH

| Compound | pIC50 [1] | pIC50 [2, 3] | pIC50 [2, 4] | pIC50 ([2]; class between 10 μM and 1 μM (5<pIC50<6)) |
| --- | --- | --- | --- | --- |
| CNc1c(C(=O)Nc2cc(NC(=O)c3cccc(C(C)(C)C#N)c3)ccc2C)sc2nccnc12 [Example 2, N-(5-(3-(2-cyanopropan-2-yl)benzamido)-2-methylphenyl)-7-(methylamino)thieno[2,3-b]pyrazine-6-carboxamide] | > 8.00 | > 7.00 | – | – |
| Cc1ccc(NC(=O)c2cccc(C(C)(C)C#N)c2)cc1NC(=O)c1sc2ncc(Br)nc2c1N [Example 3, 7-amino-2-bromo-N-(5-(3-(2-cyanopropan-2-yl)benzamido)-2-methylphenyl)thieno[2,3-b]pyrazine-6-carboxamide] | > 7.00 | – | 6.00 to 7.00 | – |
| Cc1ccc(NC(=O)c2cccc(C(C)(C)C#N)c2)cc1NC(=O)c1sc2ncc(N(C)C)nc2c1N [Example 4, 7-amino-N-(5-(3-(2-cyanopropan-2-yl)benzamido)-2-methylphenyl)-2-(dimethylamino)thieno[2,3-b]pyrazine-6-carboxamide] | > 8.00 | > 7.00 | – | – |
| Cc1ccc(NC(=O)c2cccc(C(C)(C)C#N)c2)cc1NC(=O)c1sc2ncc(NCCN(C)C)nc2c1N [Example 5, 7-amino-N-(5-(3-(2-cyanopropan-2-yl)benzamido)-2-methylphenyl)-2-(2-(dimethylamino)ethylamino)thieno[2,3-b]pyrazine-6-carboxamide] | > 8.00 | – | 6.00 to 7.00 | – |
| CNc1cnc2sc(C(=O)Nc3cc(NC(=O)c4cccc(C(C)(C)C#N)c4)ccc3C)c(N)c2n1 [Example 6, 7-amino-N-(5-(3-(2-cyanopropan-2-yl)benzamido)-2-methylphenyl)-2-(methylamino)thieno[2,3-b]pyrazine-6-carboxamide] | > 8.00 | > 7.00 | – | – |
| CCNc1cnc2sc(C(=O)Nc3cc(NC(=O)c4cccc(C(C)(C)C#N)c4)ccc3C)c(N)c2n1 [Example 7, 7-amino-N-(5-(3-(2-cyanopropan-2-yl)benzamido)-2-methylphenyl)-2-(ethylamino)thieno[2,3-b]pyrazine-6-carboxamide] | > 7.00 | > 7.00 | – | – |
| Cc1ccc(NC(=O)c2cccc(C(C)(C)C#N)c2)cc1NC(=O)c1sc2ncc(N3CCN(C)CC3)nc2c1N [Example 8, 7-amino-N-(5-(3-(2-cyanopropan-2-yl)benzamido)-2-methylphenyl)-2-(4-methylpiperazin-1-yl)thieno[2,3-b]pyrazine-6-carboxamide] | > 8.00 | – | 6.00 to 7.00 | – |
| Cc1ccc(NC(=O)c2cccc(C(C)(C)C#N)c2)cc1NC(=O)c1sc2ncc(N3CCOCC3)nc2c1N [Example 9, 7-amino-N-(5-(3-(2-cyanopropan-2-yl)benzamido)-2-methylphenyl)-2-morpholinothieno[2,3-b]pyrazine-6-carboxamide] | > 8.00 | > 7.00 | – | – |
| COCCNc1cnc2sc(C(=O)Nc3cc(NC(=O)c4cccc(C(C)(C)C#N)c4)ccc3C)c(N)c2n1 [Example 10, 7-amino-N-(5-(3-(2-cyanopropan-2-yl)benzamido)-2-methylphenyl)-2-(2-methoxyethylamino)thieno[2,3-b]pyrazine-6-carboxamide] | > 8.00 | > 7.00 | – | – |
| Cc1ccc(NC(=O)c2cccc(C(C)(C)C#N)c2)cc1NC(=O)c1sc2ncc(NC3CCOCC3)nc2c1N [Example 11, 7-amino-N-(5-(3-(2-cyanopropan-2-yl)benzamido)-2-methylphenyl)-2-(tetrahydro-2H-pyran-4-ylamino)thieno[2,3-b]pyrazine-6-carboxamide] | > 7.00 | > 7.00 | – | – |

Continued, values first:

| pIC50 [1] | pIC50 [2, 3] | pIC50 [2, 4] | pIC50 ([2]; class between 10 μM and 1 μM (5<pIC50<6)) | Compound |
| --- | --- | --- | --- | --- |
| > 7.00 | > 7.00 | – | – | CCNc1cnc2sc(C(=O)Nc3cc(NC(=O)c4cccc(C(C)(C)C#N)c4)ccc3C)cc2n1 [Example 13, N-(5-(3-(2-cyanopropan-2-yl)benzamido)-2-methylphenyl)-2-(ethylamino)thieno[2,3-b]pyrazine-6-carboxamide] |
| > 7.00 | – | – | 5.00 to 6.00 | Cc1ccc(NC(=O)c2cccc(C(C)(C)C#N)c2)cc1NC(=O)c1cc2nc(NCCN(C)C)cnc2s1 [Example 14, N-(5-(3-(2-cyanopropan-2-yl)benzamido)-2-methylphenyl)-2-(2-(dimethylamino)ethylamino)thieno[2,3-b]pyrazine-6-carboxamide] |
| > 8.00 | > 7.00 | – | – | Cc1ccc(NC(=O)c2cccc(C(C)(C)C#N)c2)cc1NC(=O)c1cc2nc(N(C)C)cnc2s1 [Example 15, N-(5-(3-(2-cyanopropan-2-yl)benzamido)-2-methylphenyl)-2-(dimethylamino)thieno[2,3-b]pyrazine-6-carboxamide] |
| > 7.00 | > 7.00 | – | – | Cc1ccc(NC(=O)c2cccc(C(C)(C)C#N)c2)cc1NC(=O)c1cc2nc(NC(C)C)cnc2s1 [Example 16, N-(5-(3-(2-cyanopropan-2-yl)benzamido)-2-methylphenyl)-2-(isopropylamino)thieno[2,3-b]pyrazine-6-carboxamide] |
| > 7.00 | – | 6.00 to 7.00 | – | CNc1cnc2sc(C(=O)Nc3cc(NC(=O)c4cccc(C(C)(C)C#N)c4)ccc3C)cc2n1 [Example 17, N-(5-(3-(2-cyanopropan-2-yl)benzamido)-2-methylphenyl)-2-(methylamino)thieno[2,3-b]pyrazine-6-carboxamide] |
